What all share (test): cell-based
Experiment [1] addresses T1, hNav1.7 (Homo sapiens, UniProt Q15858).
Experiment [2] concerns the target T1, hNav1.7. Type of experiment: cell-based. As to conditions: IonWorks Quattro, use-dependent block, hNav1.7; read-out: IWQ Use Nav1.7. Background: In patch-clamp work, channel activity is measured electrically.
Experiment [3] addresses hNav1.5 (Homo sapiens, UniProt Q14524). As to conditions: IonWorks Quattro, use-dependent block, hNav1.5; read-out: IWQ Use Nav1.5.
The target in experiment [4] is hNav1.3 (Homo sapiens, UniProt Q9NY46). As to conditions: IonWorks Quattro, use-dependent block, hNav1.3; read-out: IWQ Use Nav1.3.
Chain of hNav1.3 (Q9NY46 whole entry, looked up): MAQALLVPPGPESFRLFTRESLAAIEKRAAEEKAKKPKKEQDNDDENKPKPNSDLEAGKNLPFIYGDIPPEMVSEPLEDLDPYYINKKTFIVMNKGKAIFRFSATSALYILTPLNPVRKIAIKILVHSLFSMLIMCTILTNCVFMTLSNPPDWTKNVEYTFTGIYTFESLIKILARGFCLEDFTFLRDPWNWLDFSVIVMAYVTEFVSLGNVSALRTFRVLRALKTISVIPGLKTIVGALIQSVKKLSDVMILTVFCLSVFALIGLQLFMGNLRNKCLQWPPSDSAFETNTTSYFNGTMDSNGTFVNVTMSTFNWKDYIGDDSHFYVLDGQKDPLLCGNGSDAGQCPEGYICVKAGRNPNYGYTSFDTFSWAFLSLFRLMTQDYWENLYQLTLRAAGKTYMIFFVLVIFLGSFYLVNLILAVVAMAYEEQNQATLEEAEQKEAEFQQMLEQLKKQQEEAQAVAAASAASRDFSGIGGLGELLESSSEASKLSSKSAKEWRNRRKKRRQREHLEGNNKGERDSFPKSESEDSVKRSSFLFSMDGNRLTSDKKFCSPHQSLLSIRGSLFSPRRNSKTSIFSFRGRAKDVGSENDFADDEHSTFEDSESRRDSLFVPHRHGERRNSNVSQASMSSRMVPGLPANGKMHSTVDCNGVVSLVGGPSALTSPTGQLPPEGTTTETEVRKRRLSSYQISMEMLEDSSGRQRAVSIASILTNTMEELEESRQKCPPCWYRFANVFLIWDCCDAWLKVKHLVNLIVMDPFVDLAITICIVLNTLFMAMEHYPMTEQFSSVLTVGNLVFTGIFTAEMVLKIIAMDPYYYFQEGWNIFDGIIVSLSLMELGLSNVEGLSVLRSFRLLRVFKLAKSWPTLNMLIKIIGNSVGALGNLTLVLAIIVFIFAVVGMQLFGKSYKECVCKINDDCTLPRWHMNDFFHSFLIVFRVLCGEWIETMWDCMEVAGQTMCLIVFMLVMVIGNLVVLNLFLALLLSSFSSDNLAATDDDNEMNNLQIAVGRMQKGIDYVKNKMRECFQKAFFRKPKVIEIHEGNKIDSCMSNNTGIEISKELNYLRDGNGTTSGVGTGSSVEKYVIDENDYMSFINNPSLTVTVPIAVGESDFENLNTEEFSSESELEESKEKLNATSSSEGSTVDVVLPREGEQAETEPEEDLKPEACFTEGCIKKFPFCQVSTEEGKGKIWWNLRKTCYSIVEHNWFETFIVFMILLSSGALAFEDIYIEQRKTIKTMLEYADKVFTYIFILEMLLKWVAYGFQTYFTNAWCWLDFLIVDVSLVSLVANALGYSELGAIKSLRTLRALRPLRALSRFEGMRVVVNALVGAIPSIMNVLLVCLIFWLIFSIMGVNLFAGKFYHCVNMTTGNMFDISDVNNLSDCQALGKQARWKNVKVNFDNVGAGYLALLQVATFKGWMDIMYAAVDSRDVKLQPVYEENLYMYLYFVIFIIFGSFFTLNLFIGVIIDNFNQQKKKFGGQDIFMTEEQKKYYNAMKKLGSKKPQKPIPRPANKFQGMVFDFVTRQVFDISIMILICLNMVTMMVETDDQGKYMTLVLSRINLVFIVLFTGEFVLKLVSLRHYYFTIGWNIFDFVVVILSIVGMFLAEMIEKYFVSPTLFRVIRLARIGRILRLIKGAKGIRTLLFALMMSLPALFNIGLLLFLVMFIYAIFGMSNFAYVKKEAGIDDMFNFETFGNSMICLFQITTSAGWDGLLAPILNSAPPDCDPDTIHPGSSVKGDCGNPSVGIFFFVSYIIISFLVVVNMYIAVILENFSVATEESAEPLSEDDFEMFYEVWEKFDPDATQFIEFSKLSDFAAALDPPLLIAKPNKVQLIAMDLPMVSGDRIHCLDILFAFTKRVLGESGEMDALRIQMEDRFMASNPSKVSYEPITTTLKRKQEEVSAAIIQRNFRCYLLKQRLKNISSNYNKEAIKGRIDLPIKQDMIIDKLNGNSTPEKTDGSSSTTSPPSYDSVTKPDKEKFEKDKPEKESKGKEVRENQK

Each structure is given as a SMILES string. Positions of bridges follow the written chain, without caps; N, C: chain ends. Non-standard residues stand in square brackets, D forms with d. Residues, ends and D or L forms follow the SMILES beside them. *: point of attachment. Biotin = O=C1N[C@H]2[C@H](CS[C@H]2CCCCC(=O)*)N1; Abu = CC[C@H](N)C(=O)O; Ahx = NCCCCCC(=O)O

T1 sequence (Q15858 whole entry, looked up): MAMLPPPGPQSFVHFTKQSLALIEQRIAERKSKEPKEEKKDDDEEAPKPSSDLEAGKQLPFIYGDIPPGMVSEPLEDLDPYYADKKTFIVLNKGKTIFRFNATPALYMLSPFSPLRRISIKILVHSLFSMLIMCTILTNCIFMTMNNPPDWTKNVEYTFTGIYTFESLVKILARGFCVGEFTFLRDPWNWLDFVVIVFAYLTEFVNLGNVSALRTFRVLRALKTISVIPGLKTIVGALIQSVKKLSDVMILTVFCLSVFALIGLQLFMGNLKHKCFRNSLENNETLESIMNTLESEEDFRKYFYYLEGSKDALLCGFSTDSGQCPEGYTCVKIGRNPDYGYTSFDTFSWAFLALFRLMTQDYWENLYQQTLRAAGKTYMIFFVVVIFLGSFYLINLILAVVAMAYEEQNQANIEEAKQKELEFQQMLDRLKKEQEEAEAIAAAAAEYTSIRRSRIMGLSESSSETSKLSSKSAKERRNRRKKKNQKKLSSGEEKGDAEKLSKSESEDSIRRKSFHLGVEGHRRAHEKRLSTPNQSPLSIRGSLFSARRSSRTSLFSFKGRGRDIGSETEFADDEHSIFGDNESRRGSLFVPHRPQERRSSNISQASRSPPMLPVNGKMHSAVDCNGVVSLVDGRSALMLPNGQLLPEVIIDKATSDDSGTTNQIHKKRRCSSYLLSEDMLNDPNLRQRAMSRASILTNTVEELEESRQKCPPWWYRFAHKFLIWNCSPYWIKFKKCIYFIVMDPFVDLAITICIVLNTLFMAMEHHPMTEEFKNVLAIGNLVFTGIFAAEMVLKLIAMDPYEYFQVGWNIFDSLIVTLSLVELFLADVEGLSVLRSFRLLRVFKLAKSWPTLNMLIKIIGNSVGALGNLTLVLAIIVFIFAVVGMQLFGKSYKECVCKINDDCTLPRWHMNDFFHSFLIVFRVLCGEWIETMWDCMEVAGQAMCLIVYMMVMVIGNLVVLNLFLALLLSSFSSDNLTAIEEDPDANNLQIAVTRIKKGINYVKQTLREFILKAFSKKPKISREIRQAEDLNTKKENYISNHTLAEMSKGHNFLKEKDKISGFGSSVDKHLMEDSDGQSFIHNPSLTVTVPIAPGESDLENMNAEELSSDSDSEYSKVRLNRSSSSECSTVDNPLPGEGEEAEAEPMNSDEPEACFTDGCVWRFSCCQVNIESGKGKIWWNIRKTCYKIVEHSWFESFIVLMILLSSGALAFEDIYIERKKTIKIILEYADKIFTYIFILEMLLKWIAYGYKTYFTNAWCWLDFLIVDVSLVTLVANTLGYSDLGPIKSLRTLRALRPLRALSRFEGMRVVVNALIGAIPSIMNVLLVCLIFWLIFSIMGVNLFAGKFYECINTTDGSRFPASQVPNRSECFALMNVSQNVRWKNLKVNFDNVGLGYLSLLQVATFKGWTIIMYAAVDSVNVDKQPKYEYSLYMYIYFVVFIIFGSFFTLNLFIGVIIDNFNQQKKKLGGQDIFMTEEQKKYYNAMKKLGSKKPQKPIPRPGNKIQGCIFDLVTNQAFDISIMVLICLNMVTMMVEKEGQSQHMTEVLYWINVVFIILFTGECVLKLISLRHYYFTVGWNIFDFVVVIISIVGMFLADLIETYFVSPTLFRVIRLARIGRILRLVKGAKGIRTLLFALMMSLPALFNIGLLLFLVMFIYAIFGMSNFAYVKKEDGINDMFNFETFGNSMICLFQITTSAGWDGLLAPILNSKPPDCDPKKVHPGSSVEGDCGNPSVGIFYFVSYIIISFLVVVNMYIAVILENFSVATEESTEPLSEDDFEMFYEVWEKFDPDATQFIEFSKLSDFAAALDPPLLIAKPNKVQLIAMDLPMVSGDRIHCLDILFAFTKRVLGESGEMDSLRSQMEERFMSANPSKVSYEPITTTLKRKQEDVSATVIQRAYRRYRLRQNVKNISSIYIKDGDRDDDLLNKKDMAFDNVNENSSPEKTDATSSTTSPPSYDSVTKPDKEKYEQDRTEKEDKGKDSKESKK

Consider `CC[C@@H]1NC(=O)CNC(=O)[C@H](CC(C)C)NC(=O)[C@@H](NC(=O)[C@H](CC(=O)O)NC(=O)CCCCCNC(=O)CCCC[C@@H]2SC[C@@H]3NC(=O)N[C@@H]32)CSSC[C@@H]2NC(=O)[C@@H]3CSSC[C@@H](C(=O)N[C@@H](CCCCN)C(=O)N[C@@H](Cc4ccc(O)cc4)C(=O)N[C@H](C(=O)N[C@@H](Cc4ccccc4)C(N)=O)C(C)C)NC(=O)[C@H](Cc4c[nH]c5ccccc45)NC(=O)[C@H](CCCNC(=N)N)NC(=O)[C@H](Cc4c[nH]cn4)NC(=O)[C@H]([C@@H](C)O)NC(=O)[C@H](CCCNC(=N)N)NC(=O)[C@H](CO)NC(=O)[C@H](CSSC[C@H](NC(=O)[C@H](CCCCN)NC(=O)[C@H](CCCNC(=N)N)NC(=O)[C@H](CC(C)C)NC1=O)C(=O)N[C@@H]([C@@H](C)CC)C(=O)N1CCC[C@H]1C(=O)N[C@@H](CC(=O)O)C(=O)N[C@@H](CC)C(=O)N[C@@H](CC(=O)O)C(=O)N[C@@H](CCCCN)C(=O)N3)NC(=O)[C@H](C(C)C)NC(=O)[C@H](CC(C)C)NC(=O)[C@H](CC(N)=O)NC(=O)[C@@H]1CCCN1C(=O)[C@H](CCCNC(=N)N)NC2=O` ({Biotin-Ahx}-DCLG[Abu]LRKCIPD[Abu]DKCCRPNLVCSRTHRWCKYVF-NH2; disulfide 2-17, 9-23, 16-30), for which, in experiment [1], the “Nav1.4/Nav1.7 Use” value stood at 2482 and the “Nav1.5/Nav1.7 Use” value is recorded as more than 909.

As for `CC[C@H](C)[C@@H]1NC(=O)[C@@H]2CSSC[C@@H]3NC(=O)[C@H](C(C)C)NC(=O)[C@H](CC(C)C)NC(=O)[C@H](CC(N)=O)NC(=O)[C@@H]4CCCN4C(=O)[C@H](CCCNC(=N)N)NC(=O)[C@H](CSSC[C@H](NC(=O)[C@@H](N)CC(=O)O)C(=O)N[C@@H](CC(C)C)C(=O)NCC(=O)N[C@@H](C)C(=O)N[C@@H](CC(C)C)C(=O)N[C@@H](CCCNC(=N)N)C(=O)N[C@@H](CCCCN)C(=O)N2)NC(=O)[C@H](CSSC[C@@H](C(=O)N[C@@H](CCCCN)C(=O)N[C@@H](Cc2ccc(O)cc2)C(=O)N[C@H](C(=O)N[C@@H](Cc2ccccc2)C(=O)O)C(C)C)NC(=O)[C@H](Cc2c[nH]c4ccccc24)NC(=O)[C@H](CCCNC(=N)N)NC(=O)[C@H](Cc2c[nH]cn2)NC(=O)[C@H]([C@@H](C)O)NC(=O)[C@H](CCCNC(=N)N)NC(=O)[C@H](CO)NC3=O)NC(=O)[C@H](CCCCN)NC(=O)[C@H](CC(=O)O)NC(=O)[C@H](CCSC)NC(=O)[C@H](CC(=O)O)NC(=O)[C@@H]2CCCN2C1=O` [compound 868] (H-DCLGALRKCIPDMDKCCRPNLVCSRTHRWCKYVF-OH; disulfide 2-17, 9-23, 16-30), the IC50 in experiment [2], in experiment [3] and in experiment [4] was more than 5 µM in each case.

In the case of `CC[C@H](C)[C@@H]1NC(=O)[C@@H]2CSSC[C@@H]3NC(=O)[C@H](C(C)C)NC(=O)[C@H](CC(C)C)NC(=O)[C@H](CC(N)=O)NC(=O)[C@@H]4CCCN4C(=O)[C@H](CCCNC(=N)N)NC(=O)[C@H](CSSC[C@H](NC(=O)[C@@H](N)CC(=O)O)C(=O)N[C@@H](CC(C)C)C(=O)NCC(=O)N[C@@H](C)C(=O)N[C@@H](CC(C)C)C(=O)N[C@@H](CCCNC(=N)N)C(=O)N[C@@H](CCCCN)C(=O)N2)NC(=O)[C@H](CSSC[C@@H](C(=O)N[C@@H](CCCCN)C(=O)N[C@@H](Cc2ccc(O)cc2)C(=O)N[C@H](C(=O)N[C@@H](Cc2ccccc2)C(=O)O)C(C)C)NC(=O)[C@H](Cc2c[nH]c4ccccc24)NC(=O)[C@H](CCCNC(=N)N)NC(=O)[C@H](Cc2c[nH]cn2)NC(=O)[C@H]([C@@H](C)O)NC(=O)[C@H](CCCNC(=N)N)NC(=O)[C@H](CO)NC3=O)NC(=O)[C@H](CCCCN)NC(=O)[C@H](CC(=O)O)NC(=O)[C@H](CCC(N)=O)NC(=O)[C@H](CC(=O)O)NC(=O)[C@@H]2CCCN2C1=O` [compound 869] (H-DCLGALRKCIPDQDKCCRPNLVCSRTHRWCKYVF-OH; disulfide 2-17, 9-23, 16-30), the IC50 in experiment [2], in experiment [3] and in experiment [4] was more than 5 µM in each case.

Turning to `CC[C@H](C)[C@@H]1NC(=O)[C@@H]2CSSC[C@@H]3NC(=O)[C@H](C(C)C)NC(=O)[C@H](CC(C)C)NC(=O)[C@H](CC(N)=O)NC(=O)[C@@H]4CCCN4C(=O)[C@H](CCCNC(=N)N)NC(=O)[C@H](CSSC[C@H](NC(=O)[C@@H](N)CC(=O)O)C(=O)N[C@@H](CC(C)C)C(=O)NCC(=O)N[C@@H](C)C(=O)N[C@@H](CC(C)C)C(=O)N[C@@H](CCCNC(=N)N)C(=O)N[C@@H](CCCCN)C(=O)N2)NC(=O)[C@H](CSSC[C@@H](C(=O)N[C@@H](CCCCN)C(=O)N[C@@H](Cc2ccc(O)cc2)C(=O)N[C@H](C(=O)N[C@@H](Cc2ccccc2)C(=O)O)C(C)C)NC(=O)[C@H](Cc2c[nH]c4ccccc24)NC(=O)[C@H](CCCNC(=N)N)NC(=O)[C@H](Cc2c[nH]cn2)NC(=O)[C@H]([C@@H](C)O)NC(=O)[C@H](CCCNC(=N)N)NC(=O)[C@H](CO)NC3=O)NC(=O)[C@H](CCCCN)NC(=O)[C@H](CC(=O)O)NC(=O)[C@H](CCCNC(=N)N)NC(=O)[C@H](CC(=O)O)NC(=O)[C@@H]2CCCN2C1=O` [compound 870] (H-DCLGALRKCIPDRDKCCRPNLVCSRTHRWCKYVF-OH; disulfide 2-17, 9-23, 16-30), the results for the IC50 in experiment [2], in experiment [3] and in experiment [4] were more than 5 µM, more than 5 µM and 1.4 µM, respectively.

Take `CC[C@H](C)[C@@H]1NC(=O)[C@@H]2CSSC[C@@H]3NC(=O)[C@H](C(C)C)NC(=O)[C@H](CC(C)C)NC(=O)[C@H](CC(N)=O)NC(=O)[C@@H]4CCCN4C(=O)[C@H](CCCNC(=N)N)NC(=O)[C@H](CSSC[C@H](NC(=O)[C@@H](N)CC(=O)O)C(=O)N[C@@H](CC(C)C)C(=O)NCC(=O)N[C@@H](C)C(=O)N[C@@H](CC(C)C)C(=O)N[C@@H](CCCNC(=N)N)C(=O)N[C@@H](CCCCN)C(=O)N2)NC(=O)[C@H](CSSC[C@@H](C(=O)N[C@@H](CCCCN)C(=O)N[C@@H](Cc2ccc(O)cc2)C(=O)N[C@H](C(=O)N[C@@H](Cc2ccccc2)C(=O)O)C(C)C)NC(=O)[C@H](Cc2c[nH]c4ccccc24)NC(=O)[C@H](CCCNC(=N)N)NC(=O)[C@H](Cc2c[nH]cn2)NC(=O)[C@H]([C@@H](C)O)NC(=O)[C@H](CCCNC(=N)N)NC(=O)[C@H](CO)NC3=O)NC(=O)[C@H](CCCCN)NC(=O)[C@H](CC(=O)O)NC(=O)[C@H](CO)NC(=O)[C@H](CC(=O)O)NC(=O)[C@@H]2CCCN2C1=O` [compound 871] (H-DCLGALRKCIPDSDKCCRPNLVCSRTHRWCKYVF-OH; disulfide 2-17, 9-23, 16-30): the IC50 in experiment [2], in experiment [3] and in experiment [4] was more than 5 µM each time.

For the compound `CC[C@H](C)[C@@H]1NC(=O)[C@@H]2CSSC[C@@H]3NC(=O)[C@H](C(C)C)NC(=O)[C@H](CC(C)C)NC(=O)[C@H](CC(N)=O)NC(=O)[C@@H]4CCCN4C(=O)[C@H](CCCNC(=N)N)NC(=O)[C@H](CSSC[C@H](NC(=O)[C@@H](N)CC(=O)O)C(=O)N[C@@H](CC(C)C)C(=O)NCC(=O)N[C@@H](C)C(=O)N[C@@H](CC(C)C)C(=O)N[C@@H](CCCNC(=N)N)C(=O)N[C@@H](CCCCN)C(=O)N2)NC(=O)[C@H](CSSC[C@@H](C(=O)N[C@@H](CCCCN)C(=O)N[C@@H](Cc2ccc(O)cc2)C(=O)N[C@H](C(=O)N[C@@H](Cc2ccccc2)C(=O)O)C(C)C)NC(=O)[C@H](Cc2c[nH]c4ccccc24)NC(=O)[C@H](CCCNC(=N)N)NC(=O)[C@H](Cc2c[nH]cn2)NC(=O)[C@H]([C@@H](C)O)NC(=O)[C@H](CCCNC(=N)N)NC(=O)[C@H](CO)NC3=O)NC(=O)[C@H](CCCCN)NC(=O)[C@H](CC(=O)O)NC(=O)[C@H](C(C)C)NC(=O)[C@H](CC(=O)O)NC(=O)[C@@H]2CCCN2C1=O` [compound 872] (H-DCLGALRKCIPDVDKCCRPNLVCSRTHRWCKYVF-OH; disulfide 2-17, 9-23, 16-30), the IC50 in experiment [2], in experiment [3] and in experiment [4] was more than 5 µM in each case.

For `CC[C@H](C)[C@@H]1NC(=O)[C@@H]2CSSC[C@@H]3NC(=O)[C@H](C(C)C)NC(=O)[C@H](CC(C)C)NC(=O)[C@H](CC(N)=O)NC(=O)[C@@H]4CCCN4C(=O)[C@H](CCCNC(=N)N)NC(=O)[C@H](CSSC[C@H](NC(=O)[C@@H](N)CC(=O)O)C(=O)N[C@@H](CC(C)C)C(=O)NCC(=O)N[C@@H](C)C(=O)N[C@@H](CC(C)C)C(=O)N[C@@H](CCCNC(=N)N)C(=O)N[C@@H](CCCCN)C(=O)N2)NC(=O)[C@H](CSSC[C@@H](C(=O)N[C@@H](CCCCN)C(=O)N[C@@H](Cc2ccc(O)cc2)C(=O)N[C@H](C(=O)N[C@@H](Cc2ccccc2)C(=O)O)C(C)C)NC(=O)[C@H](Cc2c[nH]c4ccccc24)NC(=O)[C@H](CCCNC(=N)N)NC(=O)[C@H](Cc2c[nH]cn2)NC(=O)[C@H]([C@@H](C)O)NC(=O)[C@H](CCCNC(=N)N)NC(=O)[C@H](CO)NC3=O)NC(=O)[C@H](CCCCN)NC(=O)[C@H](CC(=O)O)NC(=O)[C@H](Cc2ccc(O)cc2)NC(=O)[C@H](CC(=O)O)NC(=O)[C@@H]2CCCN2C1=O` [compound 873] (H-DCLGALRKCIPDYDKCCRPNLVCSRTHRWCKYVF-OH; disulfide 2-17, 9-23, 16-30), the IC50 was 4.8 µM in experiment [2], more than 5 µM in experiment [3] and more than 5 µM in experiment [4].

Values taken from US9340590B2 (priority 2011, dated 2016).
